Assay results reported in the CheMixHub drug solubility set.

Assay: xn = mol fraction of the nth substance listed, in the solute-free solvent

O=C(O)c1cc([N+](=O)[O-])ccc1O + CC#N + O
solubility (g/100 g solution)
Conditions	278.15 K	283.15 K	288.15 K	293.15 K	298.15 K	303.15 K	308.15 K	313.15 K	318.15 K	323.15 K
x2 = 0.04651	0.16	0.194	0.238	0.291	0.357	0.446	0.552	0.685	0.838	1.03
x2 = 0.0989	0.399	0.59	0.782	0.967	1.18	1.42	1.71	2.02	2.34	2.73
x2 = 0.1583	1.06	1.33	1.68	2.11	2.54	3.11	3.71	4.38	5.16	6.05
x2 = 0.2264	2.36	2.8	3.34	4.03	4.74	5.57	6.57	7.63	8.9	10.3
x2 = 0.3051	3.97	4.82	5.77	6.86	8.19	9.58	11.1	12.7	14.5	16.6
x2 = 0.397	7.03	7.9	8.98	10.4	11.9	13.8	15.9	18.1	20.2	22.5
x2 = 0.506	9.09	10.3	11.8	13.6	15.5	17.5	19.6	21.8	23.9	26.2
x2 = 0.6372	10.7	11.8	13.5	15.5	17.8	19.9	21.9	24.7	26.9	28.9
x2 = 0.798	12	13.3	15	17.2	19.5	21.5	24.3	26.8	29.3	31.8

O=C(O)c1ccc(C(=O)O)o1 + O + COCCOC
solubility (g/100 g solution)
Conditions	303.15 K	308.15 K	313.15 K	318.15 K	323.15 K	328.15 K	333.15 K	338.15 K	343.15 K
x2 = 0.1	1.42	1.44	1.5	1.57	1.65	1.75	1.83	1.93	2.05
x2 = 0.2	2.73	2.79	2.9	3.02	3.16	3.31	3.48	3.7	3.94
x2 = 0.3	3.75	3.9	4.06	4.22	4.39	4.58	4.79	5.05	5.33
x2 = 0.4	4.61	4.81	5.03	5.24	5.47	5.78	6.11	6.45	6.82
x2 = 0.5	5.53	5.75	6.03	6.31	6.69	7.05	7.45	7.81	8.16
x2 = 0.6	6.14	6.36	6.59	6.86	7.15	7.49	7.86	8.22	8.61
x2 = 0.7	5.57	5.8	6.08	6.35	6.64	6.93	7.24	7.62	8.03
x2 = 0.8	4.68	4.88	5.09	5.35	5.55	5.83	6.13	6.48	6.86
x2 = 0.9	4.41	4.57	4.74	4.91	5.11	5.32	5.55	5.87	6.22

CCCCOc1ccc(C(=O)CCN2CCCCC2)cc1.Cl + CCO + O
solubility (g/100 g solution)
Conditions	278.15 K	283.15 K	288.15 K	293.15 K	298.15 K	303.15 K	308.15 K	313.15 K	318.15 K	323.15 K
x2 = 0.1	34.6	37.9	41.1	44.6	48.1	51.6	55.2	58.8	62.2	65.7
x2 = 0.2	33.9	37.1	40.3	43.8	47.1	50.6	54.1	57.7	61.1	64.5
x2 = 0.3	33.4	36.5	39.6	43	46.3	49.8	53.2	56.7	60.1	63.5
x2 = 0.4	33.1	36.1	39.2	42.4	45.7	49	52.4	55.9	59.4	62.7
x2 = 0.5	32.7	35.7	38.8	42	45.1	48.5	51.8	55.3	58.7	62
x2 = 0.6	32.5	35.4	38.4	41.5	44.7	48	51.3	54.7	58.2	61.5
x2 = 0.7	32.2	35.1	38.1	41.2	44.4	47.6	50.9	54.3	57.8	61
x2 = 0.8	32	35	37.9	41	44.1	47.2	50.5	53.9	57.3	60.6
x2 = 0.9	31.9	34.8	37.8	40.7	43.8	47	50.3	53.6	57	60.2
